In patent publication US7019156B2, “Tumor inhibiting gallium compounds” (Faustus Forschungs Cie. Translational Cancer Research GmbH, priority 2001, dated 2006) one finds tumor-inhibiting effect, tumor-inhibiting activity and IC50 data, which are given here for one substance.

What all share (type): cell-based
The test system of test [1] is parvicellular bronchial carcinoma cell line (DMS 114). Description: Tumor-inhibiting activity on cell line. Conditions: compared with IC50 <0.003 mg/ml tumor types.
The test system of test [2] is ovarian (OVCAR3) cell line. Description: Tumor-inhibiting activity on cell line. Conditions: compared with IC50 <0.003 mg/ml tumor types.
Test [3] concerns stomach carcinoma xenograft. In words: Tumor-inhibiting activity on xenograft. Conditions: compared with IC50 <0.003 mg/ml tumor types.
In test [4] the test system is renal-cell carcinoma xenografts. In words: Tumor-inhibiting activity on xenografts. Conditions: one of two renal-cell carcinoma xenografts.
Test [5] concerns prostrate carcinomas. In words: Tumor-inhibiting activity, selectivity for tumor types.
Test [6] has as its system melanoma xenograft. In words: Tumor-inhibiting activity on xenograft. Conditions: compared with IC50 <0.003 mg/ml tumor types.
For test [7], the system named is macrocellular bronchial carcinomas. In words: Tumor-inhibiting activity, selectivity for tumor types.
The subject of test [8] is mammary carcinomas. The description is as above.

Where only a bound is given, the exact number is not on record here.

As usually defined, the IC50 is the concentration at which inhibition is half-maximal. A higher IC50 goes with weaker potency. Regarding “bis(2-acetylpyridine-4,4-dimethyl thiosemicarbazonato-N1, N2,S)gallium(III) tetrachlorogallate(III)”, the tumor-inhibiting effect entry in test [1], in test [2], in test [3] and in test [6] was “Comparable effects” each time. In test [4], the tumor-inhibiting activity entry was “above-average activity”. The concentration for half-maximal inhibition (IC50) in test [5], in test [7] and in test [8] was below 3 µg/mL in each case.
